Data published in patent US20250152675A1, “I-TYPE RECOMBINANT COLLAGEN WITH HIGH TRANSDERMAL ABSORBABILITY, AND USE THEREOF” (XI'AN GIANT BIOGENE TECHNOLOLGY CO., LTD, priority 2022, published 2025).
Residues, ends and D or L forms follow the SMILES beside them.

Experiment: Transdermal penetration through ex vivo mouse skin in a single-chamber diffusion cell, content by BCA kit
Assay type: in vitro ADME, Kunming mice
Conditions: collagen peptide 5 mg/ml in 0.9% NaCl, diffusion area 2.0 cm^2, 37.5° C.
Experimental: 1. Preparation of Mouse Skin Ex Vivo 10 Kunming mice of 20 to 22 g with half male and half […] were used in the experiment. After the mice were killed, the hairs on the abdomen were removed. Then the skin on the hair-removed area was peeled off, stripped of fat and tendons, and rinsed repeatedly with distilled water. After being washed, the mouse skins were rinsed with normal saline, then treated with 10% glycerol, and stored at −20° C. for use (use up within 7 days).
Single-chamber diffusion cell: The effective diffusion area of the diffusion cell is 2.0 cm^2, the volume of the receiving cell is 14 ml, the length of the custom-made stirrer is 1.4 cm, and the receiving solution is 0.9% NaCl solution.
The stored mouse skin was taken out, thawed, washed with normal saline, and sandwiched between the receiving chamber and the supplying chamber, with the medicated side facing the supplying chamber and the skin side facing the receiving chamber. The temperature of the water bath system was adjusted to 37.5° C., and the stirring speed was adjusted to 100 rpm/min. 0.9% NaCl solution pre-warmed at 37° C. was added to the receiving chamber and the air bubbles were exhausted, in order to reduce the interference, the inner surface of the mouse skin was firstly contacted with the receiving solution without medication and all the receiving solution was replaced. Then the 27 collagen peptides synthesized were prepared into 5 mg/ml solutions using 0.9% NaCl respectively, which were injected into the supplying chamber and firmly adhere to the mouse skin respectively. After 24 h, part of the receiving solution was absorbed with a syringe as the sample solution to determine the transdermal amount of collagen peptide.
The BCA kit method was used to determine the polypeptide content in the sample solution. […]

First: CC(C)[C@H](NC(=O)[C@H](C)NC(=O)CNC(=O)[C@@H]1CCCN1C(=O)[C@@H]1CCCN1C(=O)CNC(=O)[C@@H]1CCCN1C(=O)[C@@H](NC(=O)CNC(=O)[C@H](CCCNC(=N)N)NC(=O)[C@H](CCC(=O)O)NC(=O)CN)C(C)C)C(=O)NCC(=O)N1CCC[C@H]1C(=O)N[C@@H](C)C(=O)NCC(=O)N[C@@H](CCCCN)C(=O)N[C@@H](CC(=O)O)C(=O)NCC(=O)N[C@@H](CCC(=O)O)C(=O)N[C@@H](C)C(=O)NCC(=O)N[C@@H](C)C(=O)N[C@@H](CCC(N)=O)C(=O)NCC(=O)N1CCC[C@H]1C(=O)N1CCC[C@H]1C(=O)NCC(=O)N1CCC[C@H]1C(=O)N[C@@H](C)C(=O)NCC(=O)N1CCC[C@H]1C(=O)N[C@@H](C)C(=O)NCC(=O)N[C@@H](CCC(=O)O)C(=O)N[C@@H](CCCNC(=N)N)C(=O)O [compound 12] (H-GERGVPGPPGAVGPAGKDGEAGAQGPPGPAGPAGER-OH; N-terminus and C-terminus assumed)
Second: CC(C)C[C@H](NC(=O)[C@H](CC(=O)O)NC(=O)CNC(=O)[C@@H]1CCCN1C(=O)[C@@H](NC(=O)CNC(=O)[C@H](CCC(N)=O)NC(=O)[C@H](CCC(=O)O)NC(=O)CNC(=O)[C@@H]1CCCN1C(=O)[C@H](CCCCN)NC(=O)CNC(=O)[C@H](C)NC(=O)[C@H](CCC(=O)O)NC(=O)CNC(=O)[C@@H]1CCCN1C(=O)[C@@H]1CCCN1C(=O)CNC(=O)[C@H](C)NC(=O)[C@@H]1CCCN1C(=O)CNC(=O)[C@@H]1CCCN1C(=O)[C@H](CC(C)C)NC(=O)CN)C(C)C)C(=O)NCC(=O)N[C@@H](C)C(=O)N1CCC[C@H]1C(=O)NCC(=O)N1CCC[C@H]1C(=O)N[C@@H](CO)C(=O)NCC(=O)N[C@@H](C)C(=O)N[C@@H](CCCNC(=N)N)C(=O)NCC(=O)N[C@@H](CCC(=O)O)C(=O)N[C@@H](CCCNC(=N)N)C(=O)O [compound 13] (H-GLPGPAGPPGEAGKPGEQGVPGDLGAPGPSGARGER-OH; N-terminus and C-terminus assumed)
The 24h penetration amount of the first is higher: 2613.34 µg for the first, 2098.04 µg for the second.

Compared with `CC(C)C[C@H](NC(=O)[C@H](CC(=O)O)NC(=O)CNC(=O)[C@@H]1CCCN1C(=O)[C@@H](NC(=O)CN)C(C)C)C(=O)NCC(=O)N[C@@H](C)C(=O)N1CCC[C@H]1C(=O)NCC(=O)N1CCC[C@H]1C(=O)N[C@@H](CO)C(=O)NCC(=O)N[C@@H](C)C(=O)N[C@@H](CCCNC(=N)N)C(=O)NCC(=O)N[C@@H](CCC(=O)O)C(=O)N[C@@H](CCCNC(=N)N)C(=O)NCC(=O)N[C@@H](Cc1ccccc1)C(=O)N1CCC[C@H]1C(=O)NCC(=O)N[C@@H](CCC(=O)O)C(=O)N[C@@H](CCCNC(=N)N)C(=O)NCC(=O)N[C@H](C(=O)N[C@@H](CCC(N)=O)C(=O)NCC(=O)N1CCC[C@H]1C(=O)N1CCC[C@H]1C(=O)NCC(=O)N1CCC[C@H]1C(=O)N[C@@H](C)C(=O)NCC(=O)N1CCC[C@H]1C(=O)N[C@@H](CCCNC(=N)N)C(=O)O)C(C)C` [compound 14] (H-GVPGDLGAPGPSGARGERGFPGERGVQGPPGPAGPR-OH; N-terminus and C-terminus assumed), `CC[C@H](C)[C@H](NC(=O)CNC(=O)[C@H](CCC(N)=O)NC(=O)[C@@H]1CCCN1C(=O)CNC(=O)[C@@H]1CCCN1C(=O)[C@@H](NC(=O)CNC(=O)[C@@H]1CCCN1C(=O)[C@H](C)NC(=O)CNC(=O)[C@H](C)NC(=O)[C@@H]1CCCN1C(=O)CNC(=O)[C@H](CC(=O)O)NC(=O)[C@H](C)NC(=O)CNC(=O)[C@@H]1CCCN1C(=O)[C@H](CO)NC(=O)CN)[C@@H](C)O)C(=O)N[C@@H](C)C(=O)NCC(=O)N[C@@H](CCC(N)=O)C(=O)N[C@@H](CCCNC(=N)N)C(=O)NCC(=O)N[C@H](C(=O)N[C@H](C(=O)NCC(=O)N[C@@H](CC(C)C)C(=O)N1CCC[C@H]1C(=O)NCC(=O)N[C@@H](CCC(N)=O)C(=O)N[C@@H](CCCNC(=N)N)C(=O)NCC(=O)N[C@@H](CCC(=O)O)C(=O)N[C@@H](CCCNC(=N)N)C(=O)O)C(C)C)C(C)C` [compound 19] (H-GSPGADGPAGAPGTPGPQGIAGQRGVVGLPGQRGER-OH; N-terminus and C-terminus assumed) is higher in 24h penetration amount: 2045.62 µg for the first, 2432.23 µg for the second.

First: CC(C)[C@H](NC(=O)CNC(=O)[C@H](CCCNC(=N)N)NC(=O)[C@H](CCC(=O)O)NC(=O)CN)C(=O)N[C@@H](CCC(N)=O)C(=O)NCC(=O)N1CCC[C@H]1C(=O)N1CCC[C@H]1C(=O)NCC(=O)N1CCC[C@H]1C(=O)N[C@@H](C)C(=O)NCC(=O)N1CCC[C@H]1C(=O)N[C@@H](CCCNC(=N)N)C(=O)NCC(=O)N[C@@H](C)C(=O)N[C@@H](CC(N)=O)C(=O)NCC(=O)N[C@@H](C)C(=O)N1CCC[C@H]1C(=O)NCC(=O)N[C@@H](CC(N)=O)C(=O)N[C@@H](CC(=O)O)C(=O)NCC(=O)N[C@@H](C)C(=O)N[C@@H](CCCCN)C(=O)NCC(=O)N[C@@H](CC(=O)O)C(=O)N[C@@H](C)C(=O)NCC(=O)N[C@@H](C)C(=O)N1CCC[C@H]1C(=O)NCC(=O)N[C@@H](C)C(=O)N1CCC[C@H]1C(=O)O [compound 15] (H-GERGVQGPPGPAGPRGANGAPGNDGAKGDAGAPGAP-OH; N-terminus and C-terminus assumed)
Second: CSCC[C@H](NC(=O)CNC(=O)[C@H](CCC(N)=O)NC(=O)[C@H](CC(C)C)NC(=O)CNC(=O)[C@@H]1CCCN1C(=O)[C@H](C)NC(=O)CNC(=O)[C@H](CCC(N)=O)NC(=O)[C@H](CO)NC(=O)CNC(=O)[C@@H]1CCCN1C(=O)[C@H](C)NC(=O)CNC(=O)[C@@H]1CCCN1C(=O)[C@H](C)NC(=O)CN)C(=O)N1CCC[C@H]1C(=O)NCC(=O)N[C@@H](CCC(=O)O)C(=O)N[C@@H](CCCNC(=N)N)C(=O)NCC(=O)N[C@@H](C)C(=O)N[C@@H](C)C(=O)NCC(=O)N[C@@H](CC(C)C)C(=O)N1CCC[C@H]1C(=O)NCC(=O)N1CCC[C@H]1C(=O)N[C@@H](CCCCN)C(=O)NCC(=O)N[C@@H](CC(=O)O)C(=O)N[C@@H](CCCNC(=N)N)C(=O)NCC(=O)N[C@@H](CC(=O)O)C(=O)N[C@@H](C)C(=O)O [compound 17] (H-GAPGAPGSQGAPGLQGMPGERGAAGLPGPKGDRGDA-OH; N-terminus and C-terminus assumed)
The 24h penetration amount of the first is lower: 2111.23 µg for the first, 2998.75 µg for the second.

Compared with `CSCC[C@H](NC(=O)CNC(=O)[C@H](CCC(N)=O)NC(=O)[C@H](CC(C)C)NC(=O)CNC(=O)[C@@H]1CCCN1C(=O)[C@H](C)NC(=O)CNC(=O)[C@H](CCC(N)=O)NC(=O)[C@H](CO)NC(=O)CNC(=O)[C@@H]1CCCN1C(=O)[C@H](C)NC(=O)CNC(=O)[C@@H]1CCCN1C(=O)[C@H](C)NC(=O)CNC(=O)[C@H](C)NC(=O)[C@H](CC(=O)O)NC(=O)CNC(=O)[C@H](CCCCN)NC(=O)[C@H](C)NC(=O)CNC(=O)[C@H](CC(=O)O)NC(=O)[C@H](CC(N)=O)NC(=O)CNC(=O)[C@@H]1CCCN1C(=O)[C@H](C)NC(=O)CNC(=O)[C@H](CC(N)=O)NC(=O)[C@H](C)NC(=O)CN)C(=O)N1CCC[C@H]1C(=O)NCC(=O)N[C@@H](CCC(=O)O)C(=O)N[C@@H](CCCNC(=N)N)C(=O)O` [compound 16] (H-GANGAPGNDGAKGDAGAPGAPGSQGAPGLQGMPGER-OH; N-terminus and C-terminus assumed), `CC[C@H](C)[C@H](NC(=O)CN)C(=O)N[C@@H](C)C(=O)NCC(=O)N[C@@H](CCC(N)=O)C(=O)N[C@@H](CCCNC(=N)N)C(=O)NCC(=O)N[C@H](C(=O)N[C@H](C(=O)NCC(=O)N[C@@H](CC(C)C)C(=O)N1CCC[C@H]1C(=O)NCC(=O)N[C@@H](CCC(N)=O)C(=O)N[C@@H](CCCNC(=N)N)C(=O)NCC(=O)N[C@@H](CCC(=O)O)C(=O)N[C@@H](CCCNC(=N)N)C(=O)NCC(=O)N[C@@H](Cc1ccccc1)C(=O)N1CCC[C@H]1C(=O)NCC(=O)N[C@@H](CC(C)C)C(=O)N1CCC[C@H]1C(=O)NCC(=O)N1CCC[C@H]1C(=O)N[C@@H](CO)C(=O)NCC(=O)N[C@@H](CCC(=O)O)C(=O)N1CCC[C@H]1C(=O)NCC(=O)N[C@@H](CCCCN)C(=O)N[C@@H](CCC(N)=O)C(=O)NCC(=O)N1CCC[C@H]1C(=O)N[C@@H](CO)C(=O)O)C(C)C)C(C)C` [compound 20] (H-GIAGQRGVVGLPGQRGERGFPGLPGPSGEPGKQGPS-OH; N-terminus and C-terminus assumed) is higher in 24h penetration amount: 2034.34 µg for the first, 2509.11 µg for the second.

For `CC(C)C[C@H](NC(=O)CNC(=O)[C@H](CCCNC(=N)N)NC(=O)[C@@H](NC(=O)CNC(=O)[C@H](CC(=O)O)NC(=O)[C@H](CCCCN)NC(=O)CNC(=O)[C@@H]1CCCN1C(=O)[C@H](CO)NC(=O)CNC(=O)[C@H](CC(=O)O)NC(=O)[C@H](C)NC(=O)CNC(=O)[C@H](CCCCN)NC(=O)[C@@H]1CCCN1C(=O)CNC(=O)[C@H](C)NC(=O)[C@H](CC(=O)O)NC(=O)CNC(=O)[C@H](CCCNC(=N)N)NC(=O)[C@H](CC(=O)O)NC(=O)CNC(=O)[C@H](CCCCN)NC(=O)[C@@H]1CCCN1C(=O)CNC(=O)[C@@H]1CCCN1C(=O)[C@H](CC(C)C)NC(=O)CNC(=O)[C@H](C)NC(=O)[C@H](C)NC(=O)CNC(=O)[C@H](CCCNC(=N)N)NC(=O)[C@H](CCC(=O)O)NC(=O)CN)C(C)C)C(=O)N[C@H](C(=O)O)[C@@H](C)O` [compound 18] (H-GERGAAGLPGPKGDRGDAGPKGADGSPGKDGVRGLT-OH; N-terminus and C-terminus assumed), the 24h penetration amount was 2309.24 µg.
